In patent US9657014B2, “Substituted 1,6-naphthyridines” (Hoffmann-La Roche Inc., priority 2012, dated 2017):

Test system: human embryonic stem cell derived neural stem cells (NSCs)
Assay: Neural stem cell proliferation assay (neurogenesis assay)
Type: cell-based
Settings: Homo sapiens, Neural stem cell, 96 h, concentration at which 150% activity of control (100%) is reached, ATP levels (CellTiterGlo) after 4 days incubation
Method in brief: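 NSCs derived from human ES cells by dual SMAD inhibition, seeded on polyornithin/laminin, dosed 4 h later (11 points, 8 μM to 8 nM). After 4 days at 37° C, ATP luminescence read; response = compound/medium control ×100, EC150 = concentration giving 150% of control.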

SMILES | EC (150% of control) (Table 1, novel compounds) | EC (150% of control) (Table 2, known compounds)
O=C(NCc1ccncc1)c1ccc2cncc(-c3ccc(Cl)cc3)c2n1 [Example 28, 8-(4-Chlorophenyl)-N-(pyridin-4-ylmethyl)-1,6-naphthyridine-2-carboxamide] | 0.1 µM | 
CS(=O)(=O)c1ccccc1-c1cncc2ccc(C(N)=O)nc12 [Example 88, 8-(2-(Methylsulfonyl)phenyl)-1,6-naphthyridine-2-carboxamide] | 0.5 µM | 
COCCNC(=O)c1ccc2cncc(-c3ccc(Cl)cc3)c2n1 [Example 6, 8-(4-Chlorophenyl)-N-(2-methoxyethyl)-1,6-naphthyridine-2-carboxamide] | 0.02 µM | 
CS(=O)(=O)c1ccc(CNC(=O)c2ccc3cncc(-c4ccc(F)cc4F)c3n2)cc1 [Example 114, 8-(2,4-Difluorophenyl)-N-(4-(methylsulfonyl)benzyl)-1,6-naphthyridine-2-carboxamide] | 0.51 µM | 
COCCNC(=O)c1ccc2cncc(-c3ccccc3OC)c2n1 [Example 5, N-(2-Methoxyethyl)-8-(2-methoxyphenyl)-1,6-naphthyridine-2-carboxamide] | 0.26 µM | 
O=C(NCc1ccccc1)c1ccc2cncc(Br)c2n1 [Example 10, N-Benzyl-8-bromo-1,6-naphthyridine-2-carboxamide] | 0.76 µM | 
N#CC1(NC(=O)c2ccc3cncc(-c4ccc(Cl)cc4)c3n2)CC1 [Example 76, 8-(4-Chlorophenyl)-N-(1-cyanocyclopropyl)-1,6-naphthyridine-2-carboxamide] | 1.84 µM | 
O=C(NCc1cccnc1)c1ccc2cncc(-c3ccc(Cl)cc3)c2n1 [Example 45, 8-(4-Chlorophenyl)-N-(pyridin-3-ylmethyl)-1,6-naphthyridine-2-carboxamide] | 0.02 µM | 
CC(C)(C)OC(=O)N1CCN(C(=O)c2ccc3cncc(-c4ccc(Cl)cc4)c3n2)CC1 [Example 58, tert-Butyl 4-(8-(4-chlorophenyl)-1,6-naphthyridine-2-carbonyl)piperazine-1-carboxylate] | 1.1 µM | 
COCCNC(=O)c1ccc2cncc(-c3ccccc3Cl)c2n1 [Example 8, 8-(2-Chlorophenyl)-N-(2-methoxyethyl)-1,6-naphthyridine-2-carboxamide] | 0.33 µM | 
NC(=O)c1ccc2cncc(-c3ccc(Cl)cc3)c2n1 [Example 44, 8-(4-Chlorophenyl)-1,6-naphthyridine-2-carboxamide] | 0.03 µM | 
NC(=O)c1ccc2cncc(-c3ccc(OCC(F)(F)F)cc3)c2n1 [Example 165, 8-(4-(2,2,2-Trifluoroethoxyl)phenyl)-1,6-naphthyridine-2-carboxamide] | 0.01 µM | 
CS(=O)(=O)c1ccc(-c2cncc3ccc(C(N)=O)nc23)cc1 [Example 86, 8-(4-(Methylsulfonyl)phenyl)-1,6-naphthyridine-2-carboxamide] | 0.03 µM | 
CCCCCCNC(=O)c1ccc2cncc(-c3ccc(Cl)cc3)c2n1 [Example 145, 8-(4-Chlorophenyl)-N-hexyl-1,6-naphthyridine-2-carboxamide] | 0.21 µM | 
CCCCCCNC(=O)Cc1cccc(-c2cncc3ccc(C(N)=O)nc23)c1 [Example 148, 8-(3-(2-(Hexylamino)-2-oxoethyl)phenyl)-1,6-naphthyridine-2-carboxamide] | 0.18 µM | 
O=C(NCCCn1ccnc1)c1ccc2cncc(-c3ccsc3)c2n1 [Example 197, 8-Thiophen-3-yl-[1,6]naphthyridine-2-carboxylic acid (3-imidazol-1-yl-propyl)-amide] |  | 1.98 µM
CC(C)(C)NC(=O)c1ccc2cncc(-c3ccc(Cl)cc3)c2n1 [Example 69, N-tert-Butyl-8-(4-chlorophenyl)-1,6-naphthyridine-2-carboxamide] | 0.32 µM | 
CC(C)(CO)NC(=O)c1ccc2cncc(-c3ccc(Cl)cc3)c2n1 [Example 71, 8-(4-Chlorophenyl)-N-(1-hydroxy-2-methylpropan-2-yl)-1,6-naphthyridine-2-carboxamide] | 1.06 µM | 
NC(=O)c1ccc2cncc(C3=CCOCC3)c2n1 [Example 146, 8-(3,6-Dihydro-2H-pyran-4-yl)-1,6-naphthyridine-2-carboxamide] | 0.21 µM | 
O=C(Nc1cccnc1)c1ccc2cncc(-c3ccc(Cl)cc3)c2n1 [Example 54, 8-(4-Chlorophenyl)-N-(pyridin-3-yl)-1,6-naphthyridine-2-carboxamide] | 0.8 µM | 
CC(NC(=O)c1ccc2cncc(-c3cccc(OCC(F)(F)F)c3)c2n1)C(C)(C)O (centres unmarked) [Example 164, N-(3-Hydroxy-3-methylbutan-2-yl)-8-(3-(2,2,2-trifluoroethoxyl)phenyl)-1,6-naphthyridine-2-carboxamide] | 0.76 µM | 
NC(=O)c1ccc2cncc(-c3ccc(Cl)cc3Cl)c2n1 [Example 160, 8-(2,4-Dichlorophenyl)-1,6-naphthyridine-2-carboxamide] | 0.1 µM | 

SMILES | EC (150% of control) (Table 1, novel compounds) | EC (150% of control) (Table 2, known compounds)
NC(=O)c1ccc2cncc(-c3ccc(OC(F)(F)F)cc3)c2n1 [Example 95, 8-(4-(Trifluoromethoxy)phenyl)-1,6-naphthyridine-2-carboxamide] | 0.05 µM | 
CC(C)(C)CNC(=O)c1ccc2cncc(-c3ccc(F)cc3F)c2n1 [Example 120, 8-(2,4-Difluorophenyl)-N-neopentyl-1,6-naphthyridine-2-carboxamide] | 0.08 µM | 
O=C(NCc1ccccc1)c1ccc2cncc(-c3ccncc3)c2n1 [Example 16, N-Benzyl-8-(pyridin-4-yl)-1,6-naphthyridine-2-carboxamide] | 0.04 µM | 
COCc1ccc(-c2cncc3ccc(C(N)=O)nc23)cc1 [Example 104, 8-(4-(Methoxymethyl)phenyl)-1,6-naphthyridine-2-carboxamide] | 0.02 µM | 
COCCN(Cc1ccccc1)C(=O)c1ccc2cncc(-c3ccc(OC)cc3)c2n1 [Example 34, N-Benzyl-N-(2-methoxyethyl)-8-(4-methoxyphenyl)-1,6-naphthyridine-2-carboxamide] | 0.21 µM | 
CS(=O)(=O)c1ccccc1CNC(=O)c1ccc2cncc(-c3ccc(Cl)cc3)c2n1 [Example 132, 8-(4-Chlorophenyl)-N-(2-(methylsulfonyl)benzyl)-1,6-naphthyridine-2-carboxamide] | 0.03 µM | 
NC(=O)c1ccc2cncc(-c3ccc(C(F)(F)F)cc3)c2n1 [Example 101, 8-(4-(Trifluoromethyl)phenyl)-1,6-naphthyridine-2-carboxamide] | 0.02 µM | 
COc1ccc(-c2cncc3ccc(C(=O)N4CCN(c5ccccn5)CC4)nc23)cc1 [Example 185, [8-(4-Methoxy-phenyl)-[1,6]naphthyridin-2-yl]-(4-pyridin-2-yl-piperazin-1-yl)-methanone] |  | 0.8 µM
CCCCCCC(=O)NCc1cccc(-c2cncc3ccc(C(N)=O)nc23)c1 [Example 151, 8-(3-(Heptanamidomethyl)phenyl)-1,6-naphthyridine-2-carboxamide] | 0.03 µM | 
O=C(NCC(F)(F)F)c1ccc2cncc(-c3ccc(F)c(F)c3)c2n1 [Example 127, 8-(3,4-Difluorophenyl)-N-(2,2,2-trifluoroethyl)-1,6-naphthyridine-2-carboxamide] | 0.23 µM | 
COc1ccc(-c2cncc3ccc(C(=O)NCCCc4ccccc4)nc23)cc1 [Example 25, 8-(4-Methoxyphenyl)-N-(3-phenylpropyl)-1,6-naphthyridine-2-carboxamide] | 0.67 µM | 
O=C(NCc1ccncc1)c1ccc2cncc(-c3ccccc3Cl)c2n1 [Example 30, 8-(2-Chlorophenyl)-N-(pyridin-4-ylmethyl)-1,6-naphthyridine-2-carboxamide] | 0.49 µM | 
Cc1cccc(-c2cncc3ccc(C(N)=O)nc23)c1 [Example 81, 8-m-Tolyl-1,6-naphthyridine-2-carboxamide] | 0.05 µM | 
CS(=O)(=O)CCNC(=O)c1ccc2cncc(-c3ccccc3F)c2n1 [Example 133, 8-(2-Fluorophenyl)-N-(2-(methylsulfonyl)ethyl)-1,6-naphthyridine-2-carboxamide] | 0.23 µM | 
NC(=O)c1ccc2cncc(-c3ccc(F)cc3)c2n1 [Example 77, 8-(4-Fluorophenyl)-1,6-naphthyridine-2-carboxamide] | 0.09 µM | 
O=C(NCCCn1ccnc1)c1ccc2cncc(-c3ccccc3)c2n1 [Example 189, 8-Phenyl-[1,6]naphthyridine-2-carboxylic acid (3-imidazol-1-yl-propyl)-amide] |  | 1.2 µM
COc1ccc(-c2cncc3ccc(C(=O)NCCCn4nc(C)cc4C)nc23)cc1 [Example 42, N-(3-(3,5-Dimethyl-1H-pyrazol-1-yl)propyl)-8-(4-methoxyphenyl)-1,6-naphthyridine-2-carboxamide] | 0.25 µM | 
NC(=O)c1ccc2cncc(-c3cccc(OCC(F)(F)F)c3)c2n1 [Example 166, 8-(3-(2,2,2-Trifluoroethoxyl)phenyl)-1,6-naphthyridine-2-carboxamide] | 0.06 µM | 
NC(=O)c1ccc2cncc(-c3cc(F)c(F)c(F)c3)c2n1 [Example 84, 8-(3,4,5-Trifluorophenyl)-1,6-naphthyridine-2-carboxamide] | 0.25 µM | 
Cn1cc(-c2cncc3ccc(C(N)=O)nc23)cn1 [Example 98, 8-(1-Methyl-1H-pyrazol-4-yl)-1,6-naphthyridine-2-carboxamide] | 0.14 µM | 
NC(=O)c1ccc2cncc(-c3ccc(N4CCOCC4)cc3)c2n1 [Example 94, 8-(4-Morpholinophenyl)-1,6-naphthyridine-2-carboxamide] | 0.01 µM | 
COCCNC(=O)c1ccc2cncc(-c3cccnc3)c2n1 [Example 19, N-(2-methoxyethyl)-8-(pyridin-3-yl)-1,6-naphthyridine-2-carboxamide] | 0.49 µM | 
